Measured values from patent US11638712B2, “Bis(acetamidophenyl) guanidinophenylethylphosphonates for use in the prevention and/or treatment of PAR-related diseases” (Universiteit Antwerpen, priority 2016, dated 2023).
Like-named read-outs stand apart in the source and are kept apart here.

Key:
[1] = target: T1, cathepsinG (Homo sapiens, UniProt P08311); assay: in vitro serine protease inhibition profile: cathepsinG; assay type: biochemical
T1 sequence (P08311 21-244): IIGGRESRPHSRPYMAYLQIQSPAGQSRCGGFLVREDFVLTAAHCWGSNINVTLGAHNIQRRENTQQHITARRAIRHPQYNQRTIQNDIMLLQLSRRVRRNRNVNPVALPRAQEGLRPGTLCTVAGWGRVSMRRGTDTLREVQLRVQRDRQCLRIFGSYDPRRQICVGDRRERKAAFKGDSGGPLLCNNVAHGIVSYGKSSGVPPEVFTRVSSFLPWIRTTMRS

[2] = target: T2, FXIIa (Homo sapiens, UniProt P00748); assay: in vitro serine protease inhibition profile: FXIIa; assay type: biochemical
T2 construct: panel of serine proteases: uPA, tPA, thrombin, plasmin, FXIIa
T2 sequence (P00748 373-615 limits assumed, other chains not shown): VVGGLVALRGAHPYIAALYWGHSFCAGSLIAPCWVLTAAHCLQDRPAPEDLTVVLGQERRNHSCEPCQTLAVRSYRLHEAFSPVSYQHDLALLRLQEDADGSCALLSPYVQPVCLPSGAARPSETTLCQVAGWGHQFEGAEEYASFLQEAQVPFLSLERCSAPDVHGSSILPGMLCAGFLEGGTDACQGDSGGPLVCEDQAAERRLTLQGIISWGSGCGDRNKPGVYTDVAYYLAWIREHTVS

[3] = target: tryptase (Homo sapiens, UniProt Q15661); assay: in vitro serine protease inhibition profile: tryptase; assay type: biochemical
Sequence of tryptase (Q15661 31-275): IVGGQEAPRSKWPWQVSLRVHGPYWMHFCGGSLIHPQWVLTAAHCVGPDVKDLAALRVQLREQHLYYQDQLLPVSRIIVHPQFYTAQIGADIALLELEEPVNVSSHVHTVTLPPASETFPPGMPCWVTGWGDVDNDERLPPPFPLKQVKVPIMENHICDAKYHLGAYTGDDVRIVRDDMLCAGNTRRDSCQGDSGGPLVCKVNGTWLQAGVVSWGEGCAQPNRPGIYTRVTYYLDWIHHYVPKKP

[4] = target: tPA (Homo sapiens, UniProt P00750); assay: in vitro serine protease inhibition profile: tPA; assay type: biochemical
Sequence of tPA (P00750 36-562, species assumed): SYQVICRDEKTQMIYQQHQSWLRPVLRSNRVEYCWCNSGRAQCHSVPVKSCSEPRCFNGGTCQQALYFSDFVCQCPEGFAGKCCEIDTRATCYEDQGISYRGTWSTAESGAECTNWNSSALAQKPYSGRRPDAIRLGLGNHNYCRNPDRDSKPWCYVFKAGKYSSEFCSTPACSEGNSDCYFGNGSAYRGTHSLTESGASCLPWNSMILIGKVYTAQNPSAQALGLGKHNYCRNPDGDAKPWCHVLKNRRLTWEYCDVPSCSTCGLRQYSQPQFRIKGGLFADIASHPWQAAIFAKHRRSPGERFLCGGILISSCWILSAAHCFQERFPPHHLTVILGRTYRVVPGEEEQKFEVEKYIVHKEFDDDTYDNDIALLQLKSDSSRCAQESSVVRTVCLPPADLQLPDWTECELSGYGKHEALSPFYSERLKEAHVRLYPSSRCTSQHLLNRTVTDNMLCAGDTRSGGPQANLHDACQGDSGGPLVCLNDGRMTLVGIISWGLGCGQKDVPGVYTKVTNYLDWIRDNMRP

[5] = target: KLK2 (Homo sapiens, UniProt P20151); assay: in vitro serine protease inhibition profile: KLK2; assay type: biochemical
Sequence of KLK2 (P20151 25-261, species assumed): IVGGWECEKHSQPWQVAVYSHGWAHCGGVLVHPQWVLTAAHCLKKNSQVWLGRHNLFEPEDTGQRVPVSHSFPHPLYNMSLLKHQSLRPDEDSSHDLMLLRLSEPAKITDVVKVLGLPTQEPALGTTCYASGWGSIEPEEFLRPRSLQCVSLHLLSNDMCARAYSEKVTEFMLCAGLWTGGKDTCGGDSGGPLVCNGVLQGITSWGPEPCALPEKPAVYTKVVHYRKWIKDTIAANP

[6] = target: KLK4 (Homo sapiens, UniProt Q9Y5K2); assay: in vitro serine protease inhibition profile: KLK4; assay type: biochemical
Sequence of KLK4 (Q9Y5K2 31-254, species assumed): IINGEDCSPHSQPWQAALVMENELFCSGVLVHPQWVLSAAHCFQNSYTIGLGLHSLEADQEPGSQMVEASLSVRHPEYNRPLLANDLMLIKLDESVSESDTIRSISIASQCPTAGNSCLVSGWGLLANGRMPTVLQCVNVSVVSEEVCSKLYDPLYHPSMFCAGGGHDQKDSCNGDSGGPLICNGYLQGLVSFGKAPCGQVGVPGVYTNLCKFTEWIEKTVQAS

[7] = target: T3, HNE (Homo sapiens, UniProt P08246); assay: in vitro serine protease inhibition profile: HNE; assay type: biochemical
T3 sequence (P08246 30-267): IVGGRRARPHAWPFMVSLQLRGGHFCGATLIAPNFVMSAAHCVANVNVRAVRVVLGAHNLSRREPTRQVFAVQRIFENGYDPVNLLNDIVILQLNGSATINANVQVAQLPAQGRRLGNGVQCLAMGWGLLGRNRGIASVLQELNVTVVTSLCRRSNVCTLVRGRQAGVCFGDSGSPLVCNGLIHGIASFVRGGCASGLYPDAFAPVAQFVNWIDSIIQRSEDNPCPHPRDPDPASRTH

[8] = target: T4, plasmin (Homo sapiens, UniProt P00747); assay: in vitro serine protease inhibition profile: plasmin; assay type: biochemical
T4 construct: panel of serine proteases: uPA, tPA, thrombin, plasmin, FXIIa
T4 sequence (P00747 581-810 limits assumed, species assumed): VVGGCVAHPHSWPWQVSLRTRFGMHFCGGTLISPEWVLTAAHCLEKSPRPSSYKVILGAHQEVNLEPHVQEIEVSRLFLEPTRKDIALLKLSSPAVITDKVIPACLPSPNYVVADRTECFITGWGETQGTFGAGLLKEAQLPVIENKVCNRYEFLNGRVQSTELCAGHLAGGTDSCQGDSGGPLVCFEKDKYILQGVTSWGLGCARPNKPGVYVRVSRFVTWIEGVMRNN
T4 sequence (P00747 97-580 partner limits assumed, species assumed): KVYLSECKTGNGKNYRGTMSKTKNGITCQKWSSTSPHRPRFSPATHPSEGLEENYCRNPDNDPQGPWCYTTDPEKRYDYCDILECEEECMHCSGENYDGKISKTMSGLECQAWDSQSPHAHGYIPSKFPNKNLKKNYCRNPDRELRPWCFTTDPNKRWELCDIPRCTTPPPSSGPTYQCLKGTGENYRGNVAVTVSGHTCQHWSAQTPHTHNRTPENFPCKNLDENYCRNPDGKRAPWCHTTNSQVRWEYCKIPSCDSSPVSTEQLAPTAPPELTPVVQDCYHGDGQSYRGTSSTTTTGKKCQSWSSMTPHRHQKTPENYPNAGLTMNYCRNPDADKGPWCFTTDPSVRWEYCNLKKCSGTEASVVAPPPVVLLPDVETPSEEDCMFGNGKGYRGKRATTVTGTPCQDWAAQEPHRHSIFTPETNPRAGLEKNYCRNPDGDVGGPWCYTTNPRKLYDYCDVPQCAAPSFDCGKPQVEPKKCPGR

[9] = target: T5, KLK8 (Homo sapiens, UniProt O60259); assay: in vitro serine protease inhibition profile: KLK8; assay type: biochemical
T5 sequence (O60259 33-260): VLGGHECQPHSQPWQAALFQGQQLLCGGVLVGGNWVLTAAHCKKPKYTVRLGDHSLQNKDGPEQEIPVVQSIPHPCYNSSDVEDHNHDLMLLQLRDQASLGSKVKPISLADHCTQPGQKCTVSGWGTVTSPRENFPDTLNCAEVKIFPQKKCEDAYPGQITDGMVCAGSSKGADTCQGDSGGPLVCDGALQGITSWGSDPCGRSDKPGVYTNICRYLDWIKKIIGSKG

[10] = target: KLK1 (Homo sapiens, UniProt P06870); assay: in vitro serine protease inhibition profile: KLK1; assay type: biochemical
Sequence of KLK1 (P06870 25-262, species assumed): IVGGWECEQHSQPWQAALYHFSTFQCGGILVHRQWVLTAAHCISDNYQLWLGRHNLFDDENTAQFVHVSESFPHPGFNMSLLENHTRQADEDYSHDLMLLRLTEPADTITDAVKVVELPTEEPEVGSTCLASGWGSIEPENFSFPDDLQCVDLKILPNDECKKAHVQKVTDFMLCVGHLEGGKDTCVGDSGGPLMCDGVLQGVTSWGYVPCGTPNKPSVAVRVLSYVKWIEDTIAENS

[11] = target: T6, matriptase (Homo sapiens, UniProt Q9Y5Y6); assay: in vitro serine protease inhibition profile: matriptase; assay type: biochemical
T6 sequence (Q9Y5Y6 1-855): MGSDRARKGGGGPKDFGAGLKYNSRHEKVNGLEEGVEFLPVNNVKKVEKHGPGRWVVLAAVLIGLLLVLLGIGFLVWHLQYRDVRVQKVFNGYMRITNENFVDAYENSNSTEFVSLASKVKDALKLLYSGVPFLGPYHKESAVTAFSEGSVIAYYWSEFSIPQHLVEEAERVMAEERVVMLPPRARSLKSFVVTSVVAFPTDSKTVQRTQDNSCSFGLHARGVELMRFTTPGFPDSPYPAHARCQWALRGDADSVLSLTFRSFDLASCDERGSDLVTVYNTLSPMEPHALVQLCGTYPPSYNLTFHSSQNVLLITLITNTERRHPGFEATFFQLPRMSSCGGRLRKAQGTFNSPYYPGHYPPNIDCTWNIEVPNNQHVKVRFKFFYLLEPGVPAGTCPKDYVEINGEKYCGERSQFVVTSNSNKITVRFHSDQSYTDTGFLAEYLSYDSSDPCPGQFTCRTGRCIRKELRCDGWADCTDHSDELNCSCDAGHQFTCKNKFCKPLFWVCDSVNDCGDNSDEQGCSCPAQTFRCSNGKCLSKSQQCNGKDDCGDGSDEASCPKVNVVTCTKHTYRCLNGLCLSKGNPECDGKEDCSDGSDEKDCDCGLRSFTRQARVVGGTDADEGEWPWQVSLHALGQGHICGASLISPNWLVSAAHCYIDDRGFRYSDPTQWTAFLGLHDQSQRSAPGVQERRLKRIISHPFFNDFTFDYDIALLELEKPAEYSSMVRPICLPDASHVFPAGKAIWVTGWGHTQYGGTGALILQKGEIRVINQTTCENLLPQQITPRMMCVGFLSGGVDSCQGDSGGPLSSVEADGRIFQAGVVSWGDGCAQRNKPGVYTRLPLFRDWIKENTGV

[12] = target: uPA (Homo sapiens, UniProt P00749); assay: in vitro serine protease inhibition profile: uPA; assay type: biochemical; details: read-out: IC50 uPA
[13] = test system: post-colitis rats; assay: post-colitis rat model for visceral pain, visceromotor response (VMR) to colorectal distension; details: post-colitis rats, 10 mg/kg
Protocol: Male Sprague-Dawley rats (200-225 g; Charles River, Italy) were used in all experiments. Rats were housed at a constant room temperature (22±2° C.) and humidity (60%). The animals had unlimited access to water and food and were kept on a 12 h:12 h day-night cycle. They were allowed to acclimatize for at least 1 week before the start of the experiments.
In this set-up, a mild colitis was induced in the post-colitis group on day 0, using a TNBS-enema. The control group received an intrarectal administration with 0.9% NaCl. The presence of colitis was verified by a colonoscopy on day 3. From day 10 onwards, a colonoscopy was performed every 4 days to follow-up the healing of the colonic mucosa. When the colonic mucosa was completely healed, further experiments were performed 3 days later. […] After the VMR measurement, the animals were sacrificed.
TNBS-colitis was induced at day 0 using a TNBS-enema (4 mg TNBS, 50% ethanol). […] Control animals received 0.25 ml 0.9% NaCl intrarectally. The animals were kept in a tail-up position during 1 min and were then allowed to recover in a Trendelenburg position.
Electromyographic (EMG) electrodes were implanted into the external abdominal muscle and 3 days later, the VMR experiment was performed in conscious rats. A lubricated balloon (length 5 cm) was introduced into the colorectum of the animal and connected to a barostat (Distender Series II Barostat, G&J Electronics, Canada). The EMG electrodes were attached to a data-acquisition system and a phasic distension protocol (10-20-30-40-60 mmHg, 20 s, 4 min interval) was sent through the barostat. […] The VMR was quantified using the area under the curve (AUC) of the EMG signal during the distension (20 s) corrected for the EMG signal before the distension (20 s).
22.0. The results of the VMR experiments analyzed using a Generalized Estimating Equations (GEE) test with Least Significant Difference (LSD) post-hoc test. A p-value<0.05 was considered as being statistically significant. The graphs were made with GraphPad Prism 6.0.
Visceral sensitivity was assessed using the visceromotor responses (VMRs) to a colorectal distension, shown in the graphs below as area under the curve (AUC; y-axis; μV.20 s-1) for each distension pressure (x-axis; mmHg). Serine proteases seem to play an important role in the pathogenesis of visceral pain.

[14] = target: T7, thrombin (Homo sapiens, UniProt P00734); assay: in vitro serine protease inhibition profile: thrombin; assay type: biochemical; details: read-out: IC50 thrombin
T7 construct: panel of serine proteases: uPA, tPA, thrombin, plasmin, FXIIa

Structure (SMILES) | IC50 [3] [nM] | IC50 [4] [nM] | IC50 [5] [nM] | IC50 [7] [nM] | IC50 [8] [nM] | IC50 [9] [nM] | IC50 [10] [nM] | IC50 [11] [nM] | also measured
COC(=O)NC(Cc1ccc(NC(=N)N)cc1)P(=O)(Oc1ccc(NC(C)=O)cc1)Oc1ccc(NC(C)=O)cc1 (centres unmarked) [Compound 2] | 3 | > 2500 | 315 | > 2500 | > 2500 | 13 | > 2500 | 8 | IC50 [1]: 61 nM; IC50 [2]: 3140 nM; IC50 [6]: 26 nM
N=C(N)Nc1ccc(CC(NC(=O)OCc2ccccc2)P(=O)(Oc2ccccc2)Oc2ccccc2)cc1 (centres unmarked) [Compound 3] | 83 | > 2500 | 90 | > 2500 | > 2500 | 42 | > 2500 | 150 | IC50 ([6]; read-out: IC50 KLK4): 12 nM
N=C(N)c1ccc2cc(OC(=O)c3ccc(N=C(N)N)cc3)ccc2c1 [Nafamostat] |  |  |  |  |  |  |  |  | IC50 ([3]; read-out: IC50 tryptase): < 1 nM; IC50 ([4]; read-out: IC50 tPA): > 2500 nM; IC50 ([5]; read-out: IC50 KLK2): ~100 nM; IC50 [12]: < 1 nM; IC50 ([7]; read-out: IC50 HNE): > 2500 nM; effect on VMRs (visceral pain) [13]: no significant effect on visceral pain could be detected; IC50 ([9]; read-out: IC50 KLK8): ~15 nM; IC50 ([10]; read-out: IC50 KLK1): ~1000 nM; IC50 [14]: ~500000 nM
